The test system of one experiment is rabbit atrial myocytes. Briefly: Action potential recording (perforated patch clamp) in rabbit atrial myocytes. As to conditions: increasing concentrations, result in words.
In experiment [1] the test system is left atrium of Langendorff-perfused rabbit heart. Briefly: Left atrial effective refractory period in Langendorff-perfused rabbit hearts. As for the experimental part:
(§1) After the heart was excised, it was cannulated, quickly mounted on a Langendorff perfusion set-up, and perfused at 37° C. with a solution containing (in mmol/L) 128 NaCl, 4.7 KCl, 1.45 CaCl2), 0.6 MgCl2, 27 NaHCO3, 0.4 NaH2PO4, and 11 glucose (pH maintained at 7.4 by equilibration with a mixture of 95% 02 and 5% CO2). The left atrium (ventricle) was stimulated at a basic cycle length of 200 ms, and twice the diastolic stimulus current threshold. […] The effective refractory period was defined as the longest S1-S2 interval failing to produce atrial (ventricular) activation.

Experiment [2] deals with left atrium of anesthetized rabbit. Briefly: In vivo left atrial effective refractory period in the anesthetised rabbit. The following applies: single bolus 11 nmol/kg, basic cycle length 220 ms, control 110 ms. Here is the method:
Male New Zealand White rabbits were anesthetized with ketamine 50 mg/kg and xylazine 8 mg/kg (and additionally 0.09 mg/kg Temgesic for pain relief) subcutaneously, intubated, and artificially ventilated. Anesthesia was maintained by isoflurane (0.8-1.2%). Catheters for drug infusions and blood pressure recording were inserted into marginal ear veins/arteries. Following thoracotomy, the pericardium was opened to expose the heart. A stimulation- and recording-electrode were placed on the left atrium for epicardial electrophysiological study. The left atrium was stimulated at a basic cycle length of 220 ms, and twice the diastolic stimulus current threshold. […] The effective refractory period was defined as the longest S1-S2 interval failing to produce atrial activation. Approximately 30 minutes after the completion of the preparation when the rabbit was hemodynamically and electrophysiologically stable, control measurements were undertaken.

Experiment [3] concerns the target T1, Murine NK3 receptor (Mus musculus, UniProt P47937).
T1 construct: expressed in transfected cells; host or cells: HEK 293
T1 sequence (P47937 1-452): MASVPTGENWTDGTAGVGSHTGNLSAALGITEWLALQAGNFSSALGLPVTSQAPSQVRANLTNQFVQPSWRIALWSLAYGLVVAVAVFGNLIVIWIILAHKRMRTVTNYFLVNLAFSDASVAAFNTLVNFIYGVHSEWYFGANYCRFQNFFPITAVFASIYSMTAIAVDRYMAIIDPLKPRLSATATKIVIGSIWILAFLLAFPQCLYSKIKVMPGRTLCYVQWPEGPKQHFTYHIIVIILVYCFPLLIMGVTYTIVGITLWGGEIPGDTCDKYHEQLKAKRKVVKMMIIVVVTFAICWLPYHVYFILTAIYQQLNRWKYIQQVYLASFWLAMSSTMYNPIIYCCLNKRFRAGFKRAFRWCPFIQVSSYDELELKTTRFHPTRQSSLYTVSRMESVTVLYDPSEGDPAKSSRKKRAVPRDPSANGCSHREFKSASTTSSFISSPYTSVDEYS
The following applies: HEK 293-murine NK3 receptor cells; mean ± SEM; read-out: Ca2+ Mobilization Murine NK3 receptor, EC50; cited from earlier work. A general note: Calcium assays in cells follow changes in intracellular calcium, usually with a dye or a luminescent sensor.

In experiment [4] the target is T1, Murine NK3 receptor. The following applies: read-out: Binding (Inhibition of [125I]-[MePhe7]neurokinin B) Murine NK3 receptor, Ki; HEK 293-murine NK3 receptor cells; mean ± SEM; cited from earlier work.
For experiment [5], the system named is human left atrial appendage (LAA). Briefly: Effective refractory period in human left atrial appendages. As to conditions: basic cycle length 600 ms. An excerpt: Left atrial appendages (LAA) were routinely removed from patients with atrial fibrillation receiving PVI (pulmonary vein isolation) ablation. The LAAs were removed using an endoscopic stapling device (Endo Gia stapler, Tyco Healthcare Group). The tissue samples were transported in 100-mL cooled superfusion fluid (Na^+, 155.5 mmol/L; K^+, 4.7 mmol/L; Ca^2+, 1.45 mmol/L; Mg^2+, 0.6 mmol/L; Cl^−, 136.6 mmol/L; HCO3^−, 27 mmol/L; PO4^3−, 0.4 mmol/L; glucose, 11.1 mmol/L; and heparin, 1000 IE) and submerged in a tissue bath. The superfusion fluid was kept at a stable temperature of 36.5° C. to 37.5° C. and oxygenized with a mixture of 95% O2 and 5% CO2 to maintain a pH of 7.4. LAAs were stimulated at 100 beats per minute at 2-3 times diastolic threshold with a pulse width of 2 ms using an epicardial electrode.
The effective refractory period was defined as the longest S1-S2 interval failing to produce atrial (ventricular) activation.

Experiment [6] relates to rabbit ventricular myocytes. Briefly: Action potential recording (perforated patch clamp) in rabbit ventricular myocytes. The following applies: 2 Hz, 1-10 μM substance P or 100 nM Senktide. In general terms: The patch-clamp technique gives a direct electrical read-out from membranes.
Procedure: (§2) Male New Zealand White specified pathogen free rabbits (2.5-3.5 kg) were anaesthetized with a combination of 20 mg xylazine and 100 mg ketamine (intramuscularly) and heparinized with a bolus of 1000 IU heparin (intravenously). Subsequently, the animals were killed by 200 mg pentobarbital intravenously, after which the heart was quickly excised and mounted on a langendorff perfusion apparatus. […] Single atrial cells were isolated from the left atrium using the same protocol with a modification consisting of complementing the enzymatic solution with 6.6 pg/mL protease.
(§3) Small aliquots of single cell suspension were introduced into a recording chamber on the stage of an inverted microscope. Cells were allowed to adhere for 5 minutes after which superfusion was started. Single quiescent rod-shaped myocytes with clear cross-striations and smooth surfaces were selected for measurements.
(§4) Voltage control, data acquisition, and analysis were performed using custom-made software.
(§5) Potentials were corrected for liquid junction potential [3]. Signals were low-pass filtered (cut-off frequency: 5 kHz) and digitized at 40 kHz. Cell membrane capacitance (Cm) was estimated by dividing the decay time constant of the capacitive transient in response to 5 mV hyperpolarizing voltage clamp steps from a holding potential of −40 mV, by the series resistance.
(§6) APs were measured with the amphotericin-B-perforated patch clamp technique using normal Tyrode's solution containing (in mM): NaCl 140, KCl 5.4, CaCl2 1.8, MgCl2 1.0, glucose 5.5, HEPES 5.0, pH 7.4 (NaOH). The patch-pipettes (borosilicate glass; 1-3 MΩ) were filled with a ‘standard’ solution containing (in mM): K-gluconate 110, KCl 30, NaCl 5, MgCl2 1, amphotericin-B 0.22, HEPES 10, pH 7.3 (KOH).
(§7) APs were elicited at 2 Hz by 2-ms (1.5×diastolic stimulation threshold) current pulses applied through the patch pipette. […] Values obtained from 10 consecutive APs were averaged.
(§8) The NK-agonists were applied in a cumulative sequence with 5 minutes intervals between increments in concentration. Effects were assessed after equilibration, but not earlier than 3 minutes after application.
Experiment [7] relates to ventricle of Langendorff-perfused rabbit heart. Briefly: Ventricular effective refractory period in Langendorff-perfused rabbit hearts. The following applies: 20-50 nM Senktide. As for the experimental part:
as §1

Entries after “also recorded” stand apart in the source; their conditions may differ. Where a SMILES comes first, the peptide text is derived from it.

Procedure for rabbit atrial myocytes: as §2, §3, §4, §5, §6, §7, §8

Broadly, the EC50 is the midpoint of the concentration-response curve. The term Ki denotes a measure of affinity in units of concentration, obtained from inhibition or displacement. Regarding `CSCC[C@H](NC(=O)[C@H](CC(C)C)NC(=O)CNC(=O)[C@H](Cc1ccccc1)N(C)C(=O)[C@H](Cc1ccccc1)NC(=O)[C@H](CC(=O)O)NC(=O)CCC(=O)O)C(N)=O` [Senktide, N-(3-carboxy-1-oxopropyl)-L-α-aspartyl-L-phenylalanyl-N-methyl-L-phenylalanylglycyl-L-leucyl-L-methioninamide] (HELM PEPTIDE1{[O=C(O)CCC(=O)[*:2]].D.F.[meF].G.L.M.[am]}$$$$V2.0), the “Effect on atrial action potential (AP) duration” value in the experiment on rabbit atrial myocytes is given as “significantly prolongs the AP duration”. Moreover, the “Longest S1-S2 interval that fails to produce atrial activation (A-ERP)” value in experiment [1] (750 nM Senktide, basic cycle length 200 ms, control 80 ms) was 100 ms. Moreover, the “Effect on atrial effective refractory period, in words” value in experiment [1] (Langendorff-perfused rabbit heart) is on record as “prolongs the atrial refractory period”. The “Prolongation of the S1-S2 interval measured in the left atrium” value in experiment [1] (Langendorff-perfused rabbit heart, difference to control) is reported as 20 ms. Also, the “Longest S1-S2 interval that fails to produce atrial activation (A-ERP) in vivo” value in experiment [2] was 160 ms. Further, the EC50 at Murine NK3 receptor [3] is 0.15 ± 0.09 nM. The Ki on Murine NK3 receptor [4] was 11.9 ± 2.1 nM. Further, the “Longest S1-S2 interval that fails to produce atrial activation (ERP) in human LAA” value in experiment [5] (50 nM Senktide, control 290 ms) is recorded as 440 ms. Besides, the “Effective refractory period in human LAA after wash out” value in experiment [5] (wash out after 50 nM Senktide) worked out at 320 ms. The “Effect on ventricular action potential (AP) duration” value in experiment [6] is listed as “absence of effect; also recorded: does not prolong the AP”. Moreover, in experiment [7], the “Effect on ventricular effective refractory period (V-ERP)” value was “not affected”.

The values are drawn from US10456439B2, “NK3 agonist for use in the treatment of a patient suffering from atrial arrhythmia or fibrillation” (priority 2014, dated 2019).
